Data on ten compounds can be found in ChEMBL document CHEMBL1201862, “PubChem BioAssay data set” (2004).

The structures appear in SMILES notation. Calls of active or inactive are those of the source.

The target in one assay is Paired box protein Pax-8 (Homo sapiens, UniProt Q06710). As to the kind of experiment: inhibitors of PAX8-driven TPO luciferase reporter, dose response, RMG-I cells, cherry-pick (AID 687027).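 Further: luciferase reporter driven by Pax8 target thyroperoxidase promoter measured by SteadyGlo luminescence.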 The format is functional, cell-based.
Assay [1] is described as follows: A2780 ovarian cancer cell cytotoxicity, dose response, cytotoxicity control, plate reader, dry powder samples (AID 743046). The format is functional, cell-based.
A short description of assay [2]: cytotoxicity in OVCAR8 ovarian cancer cells, dose response, PAX8 project, cell-based, plate reader, dry powder samples (AID 743197). The format is functional. To be noted: OVCAR-8.
Another assay concerns HEK293. As to the kind of experiment: HEK293T cell cytotoxicity, dose response, cytotoxicity control, ATP luminescence, cherry-pick samples (AID 687005).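 Further: cells exposed to compound for 48 hours.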 The format is functional, cell-based. The following applies: Homo sapiens.
A short description of assay [3]: HEK293 Cytotoxicity Assay Measured in Cell-Based System Using Plate Reader - 7071-01_Inhibitor_Dose_CherryPick_Activity_Set2. The format is functional.
Assay [4] is described as follows: HepG2 cell cytotoxicity, dose response, cytotoxicity control, dry powder samples (AID 720568). The format is functional, cell-based.
Assay [5] is described as follows: BHK-21 cell cytotoxicity, cytotoxicity control for flavivirus guanylyltransferase probe project, secondary screen (AID 624078). The format is functional.
Assay [6] is described as follows: MITF Orthogonal Assay: SK-MEL-5 CTG Assay Measured in Cell-Based System Using Plate Reader - 2084-02_Inhibitor_Dose_DryPowder_Activity_Set7. The format is functional.
The nature of assay [7]: MITF: Counter assay: A375 proliferation Measured in Cell-Based System Using Plate Reader - 2084-03_Inhibitor_Dose_DryPowder_Activity_Set8. The format is functional. The following applies: A-375.
Assay [8] can be described thus: TRPM1 promoter luciferase reporter signal decrease, dose response, MITF inhibitor project, cell-based, SK-MEL-5, dry powder, set 8 (AID 624430). The format is functional. On the technique in general: Reporter assays use an easily measured gene product as a stand-in for the process of interest.
Assay [9] concerns the target Delta-type opioid receptor (Homo sapiens, UniProt P41143). Put plainly: Late-stage results from the probe development effort to identify antagonists of OPRK1: fluorescence-based cell-based dose response OPRD1 counterscreen. The format is functional.
For another assay, the target named is Mu-type opioid receptor (Homo sapiens, UniProt P35372). As to the kind of experiment: Late-stage results from the probe development effort to identify antagonists of OPRK1: luminescence-based cell-based dose response OPRM1 counterscreen. The format is functional. For orientation: The purpose of a counterscreen is to sort out artefacts and off-target activity.

The nature of assay [10]: Late stage assay provider results from the probe development effort to identify selective inhibitors of heat shock protein 90 (HSP90): Absorbance-based cell proliferation assay in SKBR3 cells. The format is functional. The following applies: SK-BR-3.
A short description of assay [11]: Late stage assay provider results from the probe development effort to identify selective inhibitors of heat shock protein 90 (HSP90): Absorbance-based cell proliferation assay in MCF7 cells. The format is functional.
Assay [12] in a line: P. falciparum 3D7-ScDHODH growth inhibitors, dose response, SYBR Green, dry powder samples (AID 1159570).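 Further: parasite growth measured after 72 hours of compound exposure.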 The format is functional, cell-based.
The nature of assay [13]: HepG2 cell cytotoxicity, dose response, cytotoxicity control, plate reader, dry powder samples (AID 1159569).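 Further: inhibitor potency with signal falling toward the positive control level.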 The format is functional, cell-based.
Assay [14] is described as follows: P. falciparum Dd2 growth inhibitors, dose response, SYBR Green, cherry-picked samples (AID 1159567). The format is functional, cell-based.
Assay [15] in a line: P. falciparum Dd2 growth inhibitors, dose response, SYBR Green, dry powder samples (AID 1159566).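 Further: potency for growth inhibition with lower SYBR green DNA signal.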 The format is functional, cell-based.
Assay [16] can be described thus: P. falciparum ATP4 D1247Y mutant growth inhibitors, dose response, NITD609-resistant line, SYBR Green, dry powder (AID 1159571).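 Further: parasites synchronized at ring stage by sorbitol before testing.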 The format is functional, cell-based.
Assay [17] is described as follows: TB: CFU replicating Measured in Microorganism System Using Imaging - 7108-05_Inhibitor_Dose_DryPowder_Activity_Set2. The format is functional.
Assay [18] addresses 1-phosphatidylinositol 4,5-bisphosphate phosphodiesterase gamma-1 (Homo sapiens, UniProt P19174). Put plainly: Counterscreen for inhibitors of phospholipase C isozymes (PLC-B3): Fluorescence-based biochemical high throughput dose response assay to identify inhibitors of phospholipase C isozymes (PLC-gamma1).
The target of assay [19] is 1-phosphatidylinositol 4,5-bisphosphate phosphodiesterase beta-3 (Homo sapiens, UniProt Q01970). Put plainly: Fluorescence-based biochemical high throughput dose response assay to identify inhibitors of phospholipase C isozymes (PLC-B3).

For orientation: AC50 means the concentration at which the activity in the assay is half-maximal. Broadly, the CC50 is the concentration that lowers cell viability or growth by half. A word on the IC50: it is the concentration that gives 50% inhibition.

Chain of 1-phosphatidylinositol 4,5-bisphosphate phosphodiesterase gamma-1 (P19174 whole entry): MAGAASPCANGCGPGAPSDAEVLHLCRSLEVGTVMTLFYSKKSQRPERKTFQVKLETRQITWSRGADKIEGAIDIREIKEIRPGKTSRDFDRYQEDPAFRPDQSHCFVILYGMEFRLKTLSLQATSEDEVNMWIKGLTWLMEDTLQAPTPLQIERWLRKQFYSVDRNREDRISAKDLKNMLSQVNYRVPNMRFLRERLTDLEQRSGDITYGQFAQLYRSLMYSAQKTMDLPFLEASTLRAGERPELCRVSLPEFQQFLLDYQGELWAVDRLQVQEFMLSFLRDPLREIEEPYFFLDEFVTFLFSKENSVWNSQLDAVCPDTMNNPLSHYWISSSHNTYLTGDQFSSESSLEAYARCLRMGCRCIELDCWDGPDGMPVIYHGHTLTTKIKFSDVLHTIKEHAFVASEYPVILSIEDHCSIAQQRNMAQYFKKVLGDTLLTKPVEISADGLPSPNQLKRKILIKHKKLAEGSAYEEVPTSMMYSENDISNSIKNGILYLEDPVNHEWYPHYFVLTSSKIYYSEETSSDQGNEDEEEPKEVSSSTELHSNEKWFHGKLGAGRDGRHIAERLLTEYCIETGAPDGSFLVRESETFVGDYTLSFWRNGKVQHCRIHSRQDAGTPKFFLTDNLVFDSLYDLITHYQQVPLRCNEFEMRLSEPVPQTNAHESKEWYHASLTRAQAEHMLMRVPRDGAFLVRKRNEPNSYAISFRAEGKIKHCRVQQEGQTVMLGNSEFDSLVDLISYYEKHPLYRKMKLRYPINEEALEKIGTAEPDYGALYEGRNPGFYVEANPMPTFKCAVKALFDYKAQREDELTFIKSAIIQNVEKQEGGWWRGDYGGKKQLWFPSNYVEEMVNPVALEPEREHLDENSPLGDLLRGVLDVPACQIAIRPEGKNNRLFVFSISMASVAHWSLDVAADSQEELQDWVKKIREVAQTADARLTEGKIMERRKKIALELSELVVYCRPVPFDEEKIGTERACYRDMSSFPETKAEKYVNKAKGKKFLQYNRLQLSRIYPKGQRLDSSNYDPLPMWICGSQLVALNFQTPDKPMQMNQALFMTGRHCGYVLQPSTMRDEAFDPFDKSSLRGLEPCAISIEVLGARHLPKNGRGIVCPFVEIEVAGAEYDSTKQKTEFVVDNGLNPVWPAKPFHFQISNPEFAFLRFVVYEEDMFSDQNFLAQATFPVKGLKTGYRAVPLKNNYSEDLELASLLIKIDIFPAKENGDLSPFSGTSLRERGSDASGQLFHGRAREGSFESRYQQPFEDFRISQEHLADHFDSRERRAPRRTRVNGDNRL
Chain of Delta-type opioid receptor (P41143 whole entry): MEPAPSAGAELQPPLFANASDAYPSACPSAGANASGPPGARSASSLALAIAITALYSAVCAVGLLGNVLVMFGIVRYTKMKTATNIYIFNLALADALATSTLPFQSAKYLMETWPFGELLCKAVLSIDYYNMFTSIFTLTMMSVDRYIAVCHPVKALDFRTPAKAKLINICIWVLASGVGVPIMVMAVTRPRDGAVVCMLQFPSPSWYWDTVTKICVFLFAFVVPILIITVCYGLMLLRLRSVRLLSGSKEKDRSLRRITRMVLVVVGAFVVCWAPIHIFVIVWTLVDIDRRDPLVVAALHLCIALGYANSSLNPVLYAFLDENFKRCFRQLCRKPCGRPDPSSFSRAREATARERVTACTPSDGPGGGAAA
Chain of Paired box protein Pax-8 (Q06710 whole entry): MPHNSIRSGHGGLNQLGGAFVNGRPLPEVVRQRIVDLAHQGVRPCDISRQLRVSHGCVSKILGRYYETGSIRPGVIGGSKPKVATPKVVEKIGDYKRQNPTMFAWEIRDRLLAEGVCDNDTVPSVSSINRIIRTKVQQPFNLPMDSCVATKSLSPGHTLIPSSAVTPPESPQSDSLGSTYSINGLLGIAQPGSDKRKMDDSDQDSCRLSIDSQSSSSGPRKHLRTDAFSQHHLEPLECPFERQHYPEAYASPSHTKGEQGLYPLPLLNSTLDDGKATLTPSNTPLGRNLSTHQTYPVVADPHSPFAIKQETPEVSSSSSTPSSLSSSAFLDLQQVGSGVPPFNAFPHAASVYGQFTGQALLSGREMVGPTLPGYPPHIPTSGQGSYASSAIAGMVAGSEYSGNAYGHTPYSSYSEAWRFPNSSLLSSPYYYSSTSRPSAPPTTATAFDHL
Chain of Mu-type opioid receptor (P35372 whole entry): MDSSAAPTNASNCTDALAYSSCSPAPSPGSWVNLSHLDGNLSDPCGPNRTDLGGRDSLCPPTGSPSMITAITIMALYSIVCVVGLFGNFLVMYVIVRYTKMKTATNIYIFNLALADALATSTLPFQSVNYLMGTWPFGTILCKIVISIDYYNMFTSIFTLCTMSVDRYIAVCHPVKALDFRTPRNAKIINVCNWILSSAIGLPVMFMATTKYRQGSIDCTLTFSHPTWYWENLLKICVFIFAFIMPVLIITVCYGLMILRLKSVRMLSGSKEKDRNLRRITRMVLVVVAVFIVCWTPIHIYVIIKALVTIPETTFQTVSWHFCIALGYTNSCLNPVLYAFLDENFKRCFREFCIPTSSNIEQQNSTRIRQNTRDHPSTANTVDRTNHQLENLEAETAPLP
Chain of 1-phosphatidylinositol 4,5-bisphosphate phosphodiesterase beta-3 (Q01970 whole entry): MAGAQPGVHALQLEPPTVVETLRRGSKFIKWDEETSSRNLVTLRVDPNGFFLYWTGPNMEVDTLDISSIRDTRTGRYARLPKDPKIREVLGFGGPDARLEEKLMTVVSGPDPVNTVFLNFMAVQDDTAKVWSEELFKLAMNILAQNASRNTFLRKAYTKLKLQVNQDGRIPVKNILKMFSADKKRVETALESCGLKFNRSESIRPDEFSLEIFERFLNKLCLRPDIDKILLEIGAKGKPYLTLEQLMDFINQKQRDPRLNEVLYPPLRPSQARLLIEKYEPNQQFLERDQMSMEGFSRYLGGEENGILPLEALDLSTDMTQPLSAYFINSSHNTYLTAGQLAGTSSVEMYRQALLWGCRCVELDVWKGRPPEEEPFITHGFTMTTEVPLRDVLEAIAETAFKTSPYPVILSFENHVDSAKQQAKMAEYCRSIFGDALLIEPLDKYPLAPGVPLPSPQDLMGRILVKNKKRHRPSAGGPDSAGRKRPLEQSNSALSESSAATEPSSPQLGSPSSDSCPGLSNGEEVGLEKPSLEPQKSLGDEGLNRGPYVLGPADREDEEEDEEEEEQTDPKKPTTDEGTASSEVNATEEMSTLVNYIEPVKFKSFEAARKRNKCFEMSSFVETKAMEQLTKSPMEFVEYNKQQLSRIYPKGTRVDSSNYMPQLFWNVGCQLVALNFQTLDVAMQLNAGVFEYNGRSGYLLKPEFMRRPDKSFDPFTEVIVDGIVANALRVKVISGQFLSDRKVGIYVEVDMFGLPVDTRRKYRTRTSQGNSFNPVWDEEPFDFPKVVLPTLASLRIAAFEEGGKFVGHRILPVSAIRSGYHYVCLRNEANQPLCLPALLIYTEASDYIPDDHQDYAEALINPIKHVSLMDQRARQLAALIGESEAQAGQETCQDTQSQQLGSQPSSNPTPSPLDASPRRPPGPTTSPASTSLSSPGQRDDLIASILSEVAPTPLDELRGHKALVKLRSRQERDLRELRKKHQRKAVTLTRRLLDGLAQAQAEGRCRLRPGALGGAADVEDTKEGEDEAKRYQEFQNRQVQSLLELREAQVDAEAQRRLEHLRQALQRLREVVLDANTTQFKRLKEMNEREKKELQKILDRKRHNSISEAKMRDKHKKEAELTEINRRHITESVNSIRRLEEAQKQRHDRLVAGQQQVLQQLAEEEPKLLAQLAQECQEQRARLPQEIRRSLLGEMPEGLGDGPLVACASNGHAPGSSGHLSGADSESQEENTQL

Consider `C[C@@H]1CN([C@@H](C)CO)C(=O)c2cc(NC(=O)Nc3ccc(C(F)(F)F)cc3)ccc2O[C@@H](C)CCCCO[C@@H]1CN(C)Cc1ccc2c(c1)OCO2`, for which the AC50 was 5.64 µM (active) on Paired box protein Pax-8, 56.1 µM (active) in assay [1] and 57.3 µM (active) in assay [2].

On to `CN1[C@@H]2c3ccc(-c4cccnc4)c(=O)n3C[C@@H]2[C@@H](CO)[C@@H]1C(=O)N1CCc2ccccc2C1`, for which the AC50 (in the assay on HEK293; in assay [3]) was > 52 µM (inactive) throughout.

In the case of `CC(=O)N[C@H]1[C@@H](O[C@@H]2OC(C[C@@H](O)C3O[C@@H](n4ccc(=O)[nH]c4=O)[C@H](O)[C@@H]3O)[C@H](O)[C@H](O)[C@H]2NC(=O)/C=C/CCCCCCCCCCC(C)C)O[C@H](CO)[C@@H](O)[C@@H]1O` (some centres not stated), the AC50 in assay [4] is 13.5 µM (active).

With `O=S(=O)(Nc1cc(SCc2ccccc2)c(O)c2ccccc12)c1ccc(Cl)cc1`, the CC50 in assay [5] is 15 µM (active).

`CCN1CCN(C2=C(Nc3ccc(Br)cc3)C(=O)c3ccccc3C2=O)CC1`: the AC50 is 8.61 µM (active) in assay [6], 29.3 µM (active) in [7] and 10.7 µM (active) in assay [8].

Consider `COC(=O)c1cc(Br)cnc1N1CCC(NC2CCCC(O)C2)CC1` (configuration not stated), for which the IC50 in assay [9] was > 50 µM (inactive); at Mu-type opioid receptor, 16 µM (inactive).

As for `O=C1OC(=O)/C(=C\Nc2ccccc2F)C=C1Br`, the figures for the IC50 in assay [10] and in assay [11] were 13.3 µM (inactive) and 13.6 µM (inactive), respectively.

For the compound `COc1ccc(S(=O)(=O)N2CCC3(CC2)CN(Cc2ccncc2)[C@@H](CO)c2[nH]c4cc(OC)ccc4c23)cc1`, the AC50 in assay [12] was 1.41 µM (active); in assay [13] it was 22.9 µM (active); in [14], 2.29 µM (active); in assay [15], 1.17 µM (active); in [16] it was 1.67 µM (active).

`Cn1c(-n2c(=O)nc3n(C)c4ccccc4n3c2=O)nc2ccccc21` displayed an AbsAC90 in assay [17] of 268.91 µM.

Regarding `Nc1ncnc2c1ncn2[C@@H]1O[C@H](COP(=O)(O)CP(=O)(O)O)[C@@H](O)[C@H]1O` [PHOSPHOMETHYLPHOSPHONIC ACID ADENOSYL ESTER], the IC50 is 2.2 µM (active) in [18] and > 122 µM (inactive) in assay [19].
